Assay results reported in patent US20250268166A1, “ALS-INHIBITOR HERBICIDE TOLERANT BETA VULGARIS HYBRIDS WITH INCREASED HETEROSIS” (BAYER AKTIENGESELLSCHAFT, priority 2021, published 2025).

Tested on: B. vulgaris plants comprising the BvALS_W569L allele
Test: Sensitivity of B. vulgaris plants to ALS inhibitor herbicide (BvALS_W569L allele vs wild type allele)
Format: in vivo, Beta vulgaris
Description: Beta vulgaris plants comprising the BvALS_W569L allele are less sensitive to an ALS inhibitor, more preferably it is at least 100 times less sensitive, more preferably, 500 times, even more preferably 1000 times and most preferably […] 2000 times than Beta vulgaris plants comprising the wild-type allele. Less sensitive when used herein may, vice versa, be seen as “more tolerable” or “more resistant”. Similarly, “more tolerable” or “more resistant” may, vice versa, be seen as “less sensitive”. For example, B. vulgaris plants comprising the BvALS_W569L allele are at least 2000 times less sensitive to the ALS inhibitor herbicide foramsulfuron (a member of the ALS inhibitor subclass “sulfonylurea herbicides”) compared to B. vulgaris plants comprising a BvALS wild type allele.

Compound: COc1cc(OC)nc(NC(=O)NS(=O)(=O)c2cc(NC=O)ccc2C(=O)N(C)C)n1 [foramsulfuron]
- times less sensitive to the ALS inhibitor herbicide compared to B. vulgaris plants comprising a BvALS wild type allele: at least 2000 times
